Experimental data: patent US20230365563A1, “QUINAZOLINE COMPOUND AND APPLICATION THEREOF” (SHANGHAI PHARMACEUTICALS HOLDING CO., LTD., priority 2020, published 2023)
pIC50: −log10 of the molar value. Structures can show the parent of a compound that is named as a salt.

Experiments:
KRAS-G12D and SOS1 = target: T1, KRAS-G12D and SOS1 (Homo sapiens, UniProt P01116, G12D); assay: Inhibition of KRAS-G12D/SOS1 binding (Cisbio binding kit, 665/615 ratio), Effect Embodiment A; conditions: read-out: GTP-KRAS-G12D:SOS1 IC50
T1 construct: purchased
T1 sequence (P01116 1-188 isoform P01116-2 G12D): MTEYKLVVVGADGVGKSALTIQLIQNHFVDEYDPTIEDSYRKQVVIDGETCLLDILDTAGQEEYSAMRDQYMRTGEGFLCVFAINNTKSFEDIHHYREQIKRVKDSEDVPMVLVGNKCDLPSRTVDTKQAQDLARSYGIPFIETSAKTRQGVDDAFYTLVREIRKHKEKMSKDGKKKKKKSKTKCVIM
Outline: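 Duplicate wells received an eleven-point, threefold compound titration whose top point was the stock solution; final DMSO 1%.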

KRAS_G12D and cRAF = target: T2, KRAS_G12D and cRAF (Homo sapiens, UniProt P01116, G12D); assay: Inhibition of KRAS_G12D/cRAF binding (Cisbio binding kit, 665/615 ratio), Effect Embodiment B; conditions: read-out: GTP-KRAS-G12D:CRAF IC50
T2 construct: purchased
T2 sequence (P01116 1-188 isoform P01116-2 G12D): as above
Procedure: (§1) Similarly, the first dilution point of the compound to be tested was its storage solution, and the solution was 3-fold diluted, with 11+0 points of dilution. Echo was used to transfer 0.2 μL gradient diluted solution of the compounds into a 384-well plate, with 2 duplicated wells for each compound, and the final concentration of DMSO was 1%. The solution was centrifuged for 1 min at 1000 rpm/min.
(§2) IC50 of the compounds was fitted by Graphpad Prism 8 nonlinear regression equation: […]
(§3) The IC50 (half inhibitory concentration) of the compound was obtained by using the following nonlinear fitting formula: […]

KRAS_WT and SOS1 = target: T3, KRAS_WT and SOS1 (Homo sapiens, UniProt P01116); assay: Inhibition of KRAS_WT/SOS1 binding (Cisbio binding kit, 665/615 ratio), Effect Embodiment C; conditions: read-out: GTP-KRAS-WT:SOS1 IC50
T3 construct: purchased
T3 sequence (P01116 1-188 isoform P01116-2): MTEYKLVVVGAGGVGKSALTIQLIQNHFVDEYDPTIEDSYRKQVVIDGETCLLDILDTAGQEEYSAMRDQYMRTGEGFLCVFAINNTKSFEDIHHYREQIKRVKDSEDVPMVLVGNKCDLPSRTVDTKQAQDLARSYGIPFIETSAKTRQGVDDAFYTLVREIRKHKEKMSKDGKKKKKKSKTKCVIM
Procedure: The inhibitory ability of small molecule compounds on the binding activity of KRAS_WT and SOS1 was examined by a drug screening system based on the combination of KRAS_WT and SOS1.
as §1, §2, §3

Row | pIC50 (KRAS-G12D and SOS1) | pIC50 (KRAS_G12D and cRAF) | pIC50 (KRAS_WT and SOS1) | Compound
1 | 6.61 | 6.23 | 5.01 | CN(C)C1CN(c2nc(N3C[C@@H]4C[C@H]3CN4)c3cc(Cl)c(-c4cc(O)cc5ccccc45)c(F)c3n2)C1 (single isomer, unassigned) [Compound 2a, (R or S)-4-(4-((1S,4S)-2,5-diazabicyclo [2.2.1]heptan-2-yl)-6-chloro-2-(3-(dimethylamino)azetidin-1-yl)-8-fluoro-quinazolin-7-yl)naphthalen-2-ol]
2 | 7.43 | 6.67 | 6.40 | CN(C)C1CN(c2nc(N3C[C@@H]4CC[C@H]3CN4)c3cc(Cl)c(-c4cc(O)cc5ccccc45)c(F)c3n2)C1 (single isomer, unassigned) [Compound 4a, (R or S)-4-(4-((1S,4S)-2,5-diazabicyclo [2.2.2]octan-2-yl)-6-chloro-2-(3-(dimethylamino)azetidin-1-yl)-8-fluoro-quinazolin-7-yl)naphthalen-2-ol]
3 | 7.38 | 6.60 | 5.74 | CN(C)C1CN(c2nc(N3C[C@H]4CC[C@@H](C3)N4)c3cc(Cl)c(-c4cc(O)cc5ccccc45)c(F)c3n2)C1 (single isomer, unassigned) [Compound 5a, (R or S)-4-(4-((1R,5S)-3,8-diazabicyclo [3.2.1]octan-3-yl)-6-chloro-2-(3-(dimethylamino)azetidin-1-yl)-8-fluoro-quinazolin-7-yl)naphthalen-2-ol]
4 | 7.18 | 7.18 | 6.53 | CN(C)C1CN(c2nc(N3[C@@H]4CC[C@H]3CNC4)c3cc(Cl)c(-c4cc(O)cc5ccccc45)c(F)c3n2)C1 (single isomer, unassigned) [Compound 6a, (R or S)-4-(4-((1R,5S)-3,8-diazabicyclo [3.2.1]octan-8-yl)-6-chloro-2-(3-(dimethylamino)azetidin-1-yl)-8-fluoro-quinazolin-7-yl)naphthalen-2-ol]
5 | 6.56 | 5.48 | 4.80 | CN(C)C1CN(c2nc(N3CC4(CNC4)C3)c3cc(Cl)c(-c4cc(O)cc5ccccc45)c(F)c3n2)C1 (single isomer, unassigned) [Compound 7a, (R or S)-4-(6-chloro-2-(3-(dimethylamino)azetidin-1-yl)-8-fluoro-4-(2,6-diazaspiro[3.3]heptan-2-yl)quinazolin-7-yl)naphthalen-2-ol]
6 | 6.34 | 5.93 | 5.27 | CN(C)C1CN(c2nc(N3CC4(CCNC4)C3)c3cc(Cl)c(-c4cc(O)cc5ccccc45)c(F)c3n2)C1 (single isomer, unassigned) [Compound 8a, (R or S)-4-(6-chloro-2-(3-(dimethylamino)azetidin-1-yl)-8-fluoro-4-(2,6-diazaspiro[3.4]octan-2-yl)quinazolin-7-yl)naphthalen-2-ol]
7 | 6.11 | 5.49 | 4.99 | CN(C)C1CN(c2nc(N3CC4(CCNCC4)C3)c3cc(Cl)c(-c4cc(O)cc5ccccc45)c(F)c3n2)C1 (single isomer, unassigned) [Compound 10a, (R or S)-4-(6-chloro-2-(3-(dimethylamino)azetidin-1-yl)-8-fluoro-4-(2,7-diazaspiro[3.5]nonan-2-yl)quinazolin-7-yl)naphthalen-2-ol]
8 | 6.05 | 5.79 | 5.03 | CN(C)C1CN(c2nc(N3CCNCC34CC4)c3cc(Cl)c(-c4cc(O)cc5ccccc45)c(F)c3n2)C1 (single isomer, unassigned) [Compound 19a, (R or S)-4-(6-chloro-2-(3-(dimethylamino)azetidin-1-yl)-8-fluoro-4-(4,7-diazaspiro[2.5]octan-4-yl)quinazolin-7-yl)naphthalen-2-ol]
9 | 6.02 | 4.65 | 4.91 | CN(C)C1CN(c2nc(N3CCCNCC3)c3cc(Cl)c(-c4cc(O)cc5ccccc45)c(F)c3n2)C1 (single isomer, unassigned) [Compound 23, (S or R)-4-(6-chloro-4-(1,4-diaza-1-yl)-2-(3-(dimethylamino)azetidin-1-yl)-8-fluoroquinazolin-7-yl)naphthalen-2-ol]
10 | 6.53 | 5.36 | 5.59 | CN(C)C1CN(c2nc(N3CC4CC(C3)N4)c3cc(Cl)c(-c4cc(O)cc5ccccc45)c(F)c3n2)C1 (single isomer, unassigned) [Compound 25, 4-((7S or 7R)-4-(3,6-diazabicyclo[3.1.1]heptan-3-yl)-6-chloro-2-(3-(dimethylamino)azetidin-1-yl)-8-fluoroquinazolin-7-yl)naphthalen-2-ol]
11 | 6.51 | 5.33 | 4.65 | CN(C)C1CN(c2nc(N3CCNC4CC43)c3cc(Cl)c(-c4cc(O)cc5ccccc45)c(F)c3n2)C1 (single isomer, unassigned) [Compound 28, 4-((S or R)-4-((1R,6S or 1S,6R)-2,5-diazabicyclo[4.1.0]heptan-2-yl)-6-chloro-2-(3-(dimethylamino)azetidin-1-yl)-8-fluoroquinazolin-7-yl)naphthalen-2-ol trifluoroacetate]
12 | 6.73 |  | 6.55 | CN(C)C1CN(c2nc(N3C4CC5CC3CC(C4)N5)c3cc(Cl)c(-c4cc(O)cc5ccccc45)c(F)c3n2)C1 (single isomer, unassigned) [Compound 34, 4-((S or R)-4-(2,6-diazaadamantan-2-yl)-6-chloro-2-(3-(dimethylamino)azetidin-1-yl)-8-fluoroquinazolin-7-yl)naphthalen-2-ol]
13 | 6.56 |  | < 4.00 | CN(C)C1CN(c2nc(N3CCC4NCCC43)c3cc(Cl)c(-c4cc(O)cc5ccccc45)c(F)c3n2)C1 (single isomer, unassigned) [Compound 36, 4-((S or R)-6-chloro-2-(3-(dimethylamino)azetidin-1-yl)-8-fluoro-4-((3aS,6aS or 3aR,6aR)-hexahydropyrrolo [3,2-b]pyrrole-1(2H)-yl)quinazolin-7-yl)naphthalen-2-ol]
14 | 6.20 | 5.67 | 5.99 | CN(C)C1CN(c2nc(N3CC4CCCC3CN4)c3cc(Cl)c(-c4cc(O)cc5ccccc45)c(F)c3n2)C1 (single isomer, unassigned) [Compound 37, 4-((S or R)-4-((1S,5S or 1R,5R)-6,8-diazabicyclo[3.2.2]nonan-6-yl)-6-chloro-2-(3-(dimethylamino)azetidin-1-yl)-8-fluoroquinazolin-7-yl)naphthalen-2-ol]
15 | 7.82 | 6.98 | 5.98 | CN(C)CCCOc1nc(N2C[C@H]3CC[C@@H](C2)N3)c2cc(Cl)c(-c3cc(O)cc4ccccc34)c(F)c2n1 (single isomer, unassigned) [Compound 40a, (S or R)-4-(4-((1R,5S)-3,8-diazabicyclo[3.2.1]octan-3-yl)-6-chloro-2-(3-(dimethylamino)propoxy)-8-fluoroquinazolin-7-yl)naphthalen-2-ol]
16 | 6.68 | 6.08 | 5.24 | Cc1cccc2cc(O)cc(-c3c(Cl)cc4c(N5CC6CCC(C5)N6)nc(N5CC(N(C)C)C5)nc4c3F)c12 (single isomer, unassigned) [Compound 47a, 4-((S or R)-4-((1R,5S)-3,8-diazabicyclo[3.2.1]octan-3-yl)-6-chloro-2-(3-(dimethylamino)azetidin-1-yl)-8-fluoroquinazolin-7-yl)-5-methylnaphthalen-2-ol]
17 | 7.62 | 6.89 | 5.22 | CN(C)CCOc1nc(N2CC3CCC(C2)N3)c2cc(Cl)c(-c3cc(O)cc4ccccc34)c(F)c2n1 (single isomer, unassigned) [Compound 48a, 4-((S or R)-4-((1R,5S)-3,8-diazabicyclo[3.2.1]octan-3-yl)-6-chloro-2-(2-(dimethylamino)ethoxy)-8-fluoroquinazolin-7-yl)naphthalen-2-ol]
18 | 7.44 | 6.80 | 5.77 | CCN(C)CCCOc1nc(N2CC3CCC(C2)N3)c2cc(Cl)c(-c3cc(O)cc4ccccc34)c(F)c2n1 (single isomer, unassigned) [Compound 49a]
19 | 7.04 | 6.45 |  | C[C@@H](COc1nc(N2CC3CCC(C2)N3)c2cc(Cl)c(-c3cc(B(O)O)cc4ccccc34)c(F)c2n1)CN1C2CCC1COC2 (single isomer, unassigned) [Compound 256, (4-((7S or 7R)-2-((2R)-3-(3-oxa-8-azabicyclo[3.2.1]octan-8-yl)-2-methylpropoxy)-4-((1R,5S)-3,8-diazabicyclo[3.2.1]octan-3-yl)-6-chloro-8-fluoroquinazolin-7-yl)naphthalen-2-yl)boronic acid ditrifluoroacetate]
20 | 7.35 |  | 6.07 | CN(C)C1CN(c2nc(N3C[C@H]4CC[C@@H](C3)N4)c3cnc(-c4cc(O)cc5ccccc45)c(F)c3n2)C1 [Compound 78, 4-(4-((1R,5S)-3,8-diazabicyclo[3.2.1]octan-3-yl)-2-(3-(dimethylamino)azetidin-1-yl)-8-fluoropyridine[4,3-d]pyrimidin-7-yl)naphthalen-2-ol]

Row | Compound | pIC50 (KRAS-G12D and SOS1) | pIC50 (KRAS_G12D and cRAF) | pIC50 (KRAS_WT and SOS1)
21 | CN1CCC[C@H]1COc1nc(N2CC3CCC(C2)N3)c2cc(Cl)c(-c3cc(O)cc4ccccc34)c(F)c2n1 (single isomer, unassigned) [Compound 39a, (S or R)-4-(4-((1R,5S)-3,8-diazabicyclo[3.2.1]octan-3-yl)-6-chloro-8-fluoro-2-((S)-1-methylpyrrolidin-2-yl)methoxy)quinazolin-7-yl)naphthalen-2-ol] | 7.56 | 7.58 | 6.47
